Read-outs that look alike come from different tables or passages of the source. Marks after values point to notes of the source that are not given here.
Assays:
[1] = tested on: IL-12R40 production by OvA-stimulated splenocytes; assay: OvA-stimulated production of IL-12R40 by splenocytes of OvA-immunized mice; details: for activity at 0.0001 mg/kg / activity at 0.001 mg/kg / activity at 0.01 mg/kg: Mus musculus, Splenocyte, po, read-out: Production of IL-12R40 by splenocytes, % (% of control), OvA/FA; for Production of IL-12R40 by splenocytes / Production of IL-12R40 by splenocytes, % (% of control): OvA/FA
Protocol: The OvA was administered subcutaneously to the crest in a volume of 200 μl. Mice were immunized on day 1 with OvA in complete Freund's adjuvant (CFA; Sigma) and on day 15 with the antigen in incomplete Freund's adjuvant (IFA; Sigma). The immune response was analyzed on day 29. Mice were also immunized with 10 μg/mouse of OvA using Alum as an adjuvant.
Thymuses and spleens from mice of each treatment group were pooled, and then minced with scissors. The minced tissues were suspended in sterile PBS to form cell suspensions, filtered through a double gauze layer and centrifuged. Cells were washed twice with PBS, re-suspended in RPMI-1640 (Sigma) with 2.0 mM of L-glutamine, 50 μM of mercaptoethanol, and 10 μg/ml of gentamycin (complete medium); and cell counts were made. (The splenocyte suspension was washed with a 0.86% solution of NH4Cl to pre-lyse erthrocytes.)
Assessment of Mitogen- and Antigen-Induced Production of Cytokines: Thymic cells (1×10^6/well) in complete medium with 2% FCS were stimulated with ConA (0, 1, and 2 μg/ml). Splenocytes (1×10^6/well) in complete medium with 5% FCS were stimulated with ConA (0, 1, and 5 μg/ml) and with OvA (0-100 μg/ml). […] Supernatants from OvA-stimulated cultures were collected after 72 hours. Supernatants from both cultures were frozen, and kept at 20° C. Concentrations of IL-2, IL-4, IL-10, IL-12R40 and IFNγ in the supernatants were determined by solid-phase EIA with EIA Expansion Kits, available from BD Biosciences (formerly Pharmingen), in accordance with the manufacturer's instructions.

[2] = tested on: HBsAg; assay type: in vivo, human; details: for Antibodies to HBsAg not detected, % / Antibodies to HBsAg not detected, Abs / Protective titer against HBsAg (>10 mMU/mL), % / Protective titer against HBsAg (>10 mMU/mL), Abs: one month after the end of vaccination; for concentration of antibodies to HBsAg in the blood: one month after immunization
[3] = tested on: lymphocytes; assay type: in vivo, human
[4] = 0.1 μg/kg per os, OvA 100 μg/ml
[5] = 1.0 μg/kg per os, OvA 100 μg/ml
[6] = 10.0 μg/kg per os, OvA 10 μg/ml
[7] = 10.0 μg/kg per os, OvA 25 μg/ml
[8] = 10.0 μg/kg per os, OvA 50 μg/ml
[9] = 10.0 μg/kg per os, OvA 100 μg/ml
[10] = Healthy of group 3 after vaccination
[11] = Patients of group 2 (SCV-07 + vaccine), After vaccination

Q: What does the source list for `N[C@H](CCC(=O)N[C@@H](Cc1c[nH]c2ccccc12)C(=O)O)C(=O)O` [SCV-07, γ-D-glutamyl-L-tryptophan]?
A: activity at 0.0001 mg/kg ([1]; 0.1 μg/kg per os, OvA 0 μg/ml): 100%; activity at 0.0001 mg/kg ([1]; 0.1 μg/kg per os, OvA 10 μg/ml): 36.6%; activity at 0.0001 mg/kg ([1]; 0.1 μg/kg per os, OvA 25 μg/ml): 24.3%; activity at 0.0001 mg/kg ([1]; 0.1 μg/kg per os, OvA 50 μg/ml): 20.4%; activity at 0.0001 mg/kg [1, 4]: 18.9%; activity at 0.001 mg/kg ([1]; 1.0 μg/kg per os, OvA 0 μg/ml): 100%; activity at 0.001 mg/kg ([1]; 1.0 μg/kg per os, OvA 10 μg/ml): 26.9%; activity at 0.001 mg/kg ([1]; 1.0 μg/kg per os, OvA 25 μg/ml): 23.8%; activity at 0.001 mg/kg ([1]; 1.0 μg/kg per os, OvA 50 μg/ml): 26.5%; activity at 0.001 mg/kg [1, 5]: 25.1%; activity at 0.01 mg/kg ([1]; 10.0 μg/kg per os, OvA 0 μg/ml): 100%; activity at 0.01 mg/kg [1, 6]: 52.9%; activity at 0.01 mg/kg [1, 7]: 40.7%; activity at 0.01 mg/kg [1, 8]: 32.4%; activity at 0.01 mg/kg [1, 9]: 31.9%; OvA-induced production of IL-12r40 by splenocytes versus control ([1]; OvA/Alum, per os or i/p, data not shown): No significant differences; Production of IL-12R40 by splenocytes ([1]; 0.1 μg/kg i/p, OvA 0 μg/ml): 1285.7 pg/mL; Production of IL-12R40 by splenocytes ([1]; 0.1 μg/kg i/p, OvA 10 μg/ml): 492.4 pg/mL; Production of IL-12R40 by splenocytes, % (% of control) ([1]; 0.1 μg/kg i/p, OvA 10 μg/ml): 38.3%; Production of IL-12R40 by splenocytes ([1]; 0.1 μg/kg i/p, OvA 25 μg/ml): 499.6 pg/mL; Production of IL-12R40 by splenocytes, % (% of control) ([1]; 0.1 μg/kg i/p, OvA 25 μg/ml): 38.9%; Production of IL-12R40 by splenocytes ([1]; 0.1 μg/kg i/p, OvA 50 μg/ml): 420.8 pg/mL; Production of IL-12R40 by splenocytes, % (% of control) ([1]; 0.1 μg/kg i/p, OvA 50 μg/ml): 32.7%; Production of IL-12R40 by splenocytes ([1]; 0.1 μg/kg i/p, OvA 100 μg/ml): 522.8 pg/mL; Production of IL-12R40 by splenocytes ([1]; 0.1 μg/kg per os, OvA 0 μg/ml): 1307.6 pg/mL; Production of IL-12R40 by splenocytes ([1]; 0.1 μg/kg per os, OvA 10 μg/ml): 478.1 pg/mL; Production of IL-12R40 by splenocytes ([1]; 0.1 μg/kg per os, OvA 25 μg/ml): 317.4 pg/mL; Production of IL-12R40 by splenocytes ([1]; 0.1 μg/kg per os, OvA 50 μg/ml): 267.0 pg/mL; Production of IL-12R40 by splenocytes [1, 4]: 246.5 pg/mL; Production of IL-12R40 by splenocytes ([1]; 1.0 μg/kg i/p, OvA 0 μg/ml): 1524.0 pg/mL; Production of IL-12R40 by splenocytes ([1]; 1.0 μg/kg i/p, OvA 10 μg/ml): 933.8 pg/mL; Production of IL-12R40 by splenocytes, % (% of control) ([1]; 1.0 μg/kg i/p, OvA 10 μg/ml): 61.3%; Production of IL-12R40 by splenocytes ([1]; 1.0 μg/kg i/p, OvA 25 μg/ml): 739.7 pg/mL; Production of IL-12R40 by splenocytes, % (% of control) ([1]; 1.0 μg/kg i/p, OvA 25 μg/ml): 48.5%; Production of IL-12R40 by splenocytes ([1]; 1.0 μg/kg i/p, OvA 50 μg/ml): 630.3 pg/mL; Production of IL-12R40 by splenocytes, % (% of control) ([1]; 1.0 μg/kg i/p, OvA 50 μg/ml): 41.4%; Production of IL-12R40 by splenocytes ([1]; 1.0 μg/kg i/p, OvA 100 μg/ml): 616.4 pg/mL; Production of IL-12R40 by splenocytes, % (% of control) ([1]; 1.0 μg/kg i/p, OvA 100 μg/ml): 40.4%; Production of IL-12R40 by splenocytes ([1]; 1.0 μg/kg per os, OvA 0 μg/ml): 1362.3 pg/mL; Production of IL-12R40 by splenocytes ([1]; 1.0 μg/kg per os, OvA 10 μg/ml): 366.3 pg/mL; Production of IL-12R40 by splenocytes ([1]; 1.0 μg/kg per os, OvA 25 μg/ml): 324.5 pg/mL; Production of IL-12R40 by splenocytes ([1]; 1.0 μg/kg per os, OvA 50 μg/ml): 360.8 pg/mL; Production of IL-12R40 by splenocytes [1, 5]: 342.4 pg/mL; Production of IL-12R40 by splenocytes ([1]; 10.0 μg/kg per os, OvA 0 μg/ml): 1455.1 pg/mL; Production of IL-12R40 by splenocytes [1, 6]: 769.3 pg/mL; Production of IL-12R40 by splenocytes [1, 7]: 592 pg/mL; Production of IL-12R40 by splenocytes [1, 8]: 471.9 pg/mL; Production of IL-12R40 by splenocytes [1, 9]: 464.8 pg/mL; Antibodies to HBsAg not detected, % ([2]; Group 2, SCV-07, n = 32): 3.1** %; Antibodies to HBsAg not detected, Abs ([2]; Group 2, SCV-07, n = 32): 1; Protective titer against HBsAg (>10 mMU/mL), % ([2]; Group 2, SCV-07, n = 32): 96.9%; Protective titer against HBsAg (>10 mMU/mL), Abs ([2]; Group 2, SCV-07, n = 32): 31; Antibodies to HBsAg not detected, % ([2]; Group 3, healthy, n = 33): 6.1* %; Antibodies to HBsAg not detected, Abs ([2]; Group 3, healthy, n = 33): 2; Protective titer against HBsAg (>10 mMU/mL), % ([2]; Group 3, healthy, n = 33): 93.9%; Protective titer against HBsAg (>10 mMU/mL), Abs ([2]; Group 3, healthy, n = 33): 31; concentration of antibodies to HBsAg in the blood ([2]; healthy subjects (Group III)): 253.6 MU/L; concentration of antibodies to HBsAg in the blood ([2]; immunodeficient patients who received SCV-07 at the time of vaccination): 263.3 MU/L; CD3+ (%) [3, 10]: 33.10 ± 1.88%; CD4+ (%) [3, 10]: 22.86 ± 1.94%; CD4+/CD8+ conv. units [3, 10]: 1.203 ± 0.094 conv. units; CD8+ (%) [3, 10]: 19.71 ± 1.53%; CD16+ (%) [3, 10]: 15.19 ± 1.24%; CD95+ (%) [3, 10]: 14.62 ± 1.60%; CD3+ (%) [3, 11]: 29.60 ± 2.41%; CD4+ (%) [3, 11]: 20.13 ± 1.65%; CD4+/CD8+ conv. units [3, 11]: 1.111 ± 0.086 conv. units; CD8+ (%) [3, 11]: 18.27 ± 1.01%; CD16+ (%) [3, 11]: 13.07 ± 1.18%; CD95+ (%) [3, 11]: 12.60 ± 1.18%

Reference: patent US20090074815A1, “Immunomodulator Compounds as Vaccine Enhancers” (SCICLONE PHARMACEUTICALS, INC., priority 2005, published 2009)
